PubChem BioAssay (NCI)
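A five-concentration, 48-hour dose response in 96-well plates underlies each endpoint, interpolated linearly between surrounding concentrations. TGI: concentration producing complete growth inhibition.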

What was measured:
Assay in all cases: inhibition of tumour cell growth, NCI panel, 48 h
[1] = system: IGROV1 ovarian
[2] = system: HT29 colon
[3] = system: SF-539 CNS
[4] = system: OVCAR-4 ovarian
[5] = system: DU-145 prostate
[6] = system: UACC-62 melanoma
[7] = system: SR leukemia
[8] = system: HOP-92 NSCLC
[9] = system: SN12C renal
[10] = system: NCI/ADR-RES ovarian
[11] = system: BT-549 breast
[12] = system: SK-MEL-5 melanoma
[13] = system: HOP-62 NSCLC
[14] = system: ACHN renal
[15] = system: 786-0 renal
[16] = system: OVCAR-8 ovarian
[17] = system: M14 melanoma
[18] = system: MDA-N

Compound	TGI [1] [µM]	TGI [2] [µM]	TGI [3] [µM]	TGI [4] [µM]	TGI [5] [µM]	TGI [6] [µM]	TGI [7] [µM]	TGI [8] [µM]	TGI [9] [µM]	TGI [10] [µM]	TGI [11] [µM]	TGI [12] [µM]	TGI [13] [µM]	TGI [14] [µM]	TGI [15] [µM]	TGI [16] [µM]	TGI [17] [µM]	TGI [18] [µM]
COc1ccc(CN(CCc2c[nH]c3ccccc23)Cc2ccc(OC)cc2)cc1	9.49	6.41	3.14	12.7	32.9	5.6	> 100	9.85	2.24	9.79	11.4	9.74	11.3	17.8	12.6			
CC(c1cccc2ccccc12)/[N+]([O-])=C/c1ccccc1 (stereo unspecified)	> 100	> 100	> 100					> 100				> 100	> 100	> 100	> 100	> 100		
CSc1cc(Cl)c(C)cc1S(=O)(=O)NC(=O)NNc1ccc(F)c(Cl)c1	> 100	> 100	> 100	> 100	> 100		> 100		> 100	> 100		> 100	> 100	> 100	> 100	> 100	> 100	> 100
CCOC(=O)c1nc2ccc(C(F)(F)F)cc2nc1Oc1ccc(F)cc1	> 100	> 100	> 100	> 100	> 100	> 100	> 100	> 100		> 100	> 100	> 100	> 100	> 100	> 100	> 100	> 100	
CCOC(=O)CCC(NC(=O)c1ccc(Nc2nc3cc(C(F)(F)F)ccc3nc2-c2ccccc2)cc1)C(=O)OCC (stereo unspecified)	> 100	> 100	> 100	> 100	> 100	> 100	> 100	> 100	> 100	> 100	> 100	> 100	> 100	> 100	> 100	> 100	> 100	
C=C1C(=O)C23CC1C[C@H](OC(C)=O)C2C1(C)C(OC(C)=O)C[C@H](O)C(C)(C)[C@H]1C(O)[C@@H]3OC(C)=O (stereo partly specified)	30.6	30	7.54	25.7	33.2	26.5	27.4	24.8	20.7	> 100	13.5	27.9	33.8	24.3	20.7	22	18.7	
O=C1CCCC2=C1CC1=C(CCCC1=O)N2c1cccc2ccccc12	> 100	> 100	> 100	> 100		> 100	> 100	> 100	> 100	> 100	> 100	> 100		> 100	> 100	> 100	> 100	
O=C(CCCn1ccnc1[N+](=O)[O-])NCCn1ccnc1	> 100	> 100	> 100		> 100	> 100	> 100		> 100	> 100	> 100	> 100	> 100	> 100	> 100	> 100	> 100	
COc1ccc2c3ccc4c(c3n(C)c2c1)C(=O)c1ccccc1C4=O	> 100	> 100	> 100	> 100		> 100	> 100	> 100	> 100			> 100	> 100	> 100	> 100	> 100	> 100	
COC(=O)N/N=C/c1oc(-c2cccc([N+](=O)[O-])c2)c(-c2cccc([N+](=O)[O-])c2)c1[N+](=O)[O-]	> 100	> 100		> 100		> 100	> 100	> 100	> 100			> 100	> 100	> 100	> 100	> 100	> 100	
S=C(Nc1cccc(Cl)c1)Nc1ccccn1	> 100	> 100	> 100	> 100	> 100	> 100	> 100		> 100	> 100	> 100	> 100	> 100		> 100	> 100	> 100	
Cc1cc2c(s1)C(=O)c1sccc1C2=O	3.05	4.3	0.622	1.45	3.23	0.524	> 100	2.97	1.25	1.64		0.301		2.23	3.26	1.56	0.356	0.308
CNC(=O)CCNC(=O)CCC(=O)OC		> 100	> 100	> 100	> 100	> 100			> 100	> 100		> 100	> 100	> 100	> 100	> 100	> 100	> 100
CC1[C@@H](OCc2ccccc2)COC(=O)N1Cc1ccccc1 (stereo partly specified)	> 100	> 100		> 100	> 100	> 100	> 100	92.9	> 100	> 100		> 100	> 100	> 100	> 100	> 100	> 100	> 100
CCOP(=O)(OCC)/C(C#N)=C/c1ccco1	> 100	> 100	> 100	> 100		> 100	> 100	> 100	> 100			> 100	> 100	> 100	> 100	> 100	> 100	
